From patent US9403756B2, “N-phenyl anthranilic acid derivatives and uses thereof” (Ramot at Tel-Aviv University Ltd., priority 2007, dated 2016) come the findings set out here.

Holding throughout (type): cell-based
One test deals with T1, KCNQ2 mutant R198A (Homo sapiens, UniProt O43526, R198A).
T1 construct: expressed in transfected cells
Put plainly: KCNQ2 S4 mutant R198A. Conditions: 25 μM NH29 (25 M [sic]). The text has this: FIGS. 12A-F present the potentiating effect of NH29, an exemplary channel opener compound according to embodiments of the present invention, on selected KCNQ2 mutants. Shown are bar diagrams comparing the potentiating effect of NH29 on native KCNQ2 and KCNQ2 mutants, wherein the mutated amino acids are located at the S1-S2 helix region (FIG. 12A) or S4 helix region (FIG. 12D) and wherein the opener effect is expressed as percent of the control current in the absence of the opener. For comparison, marked as a green line, is the observed current increase of native KCNQ2 by NH29. FIGS. 12B 12C, 12E and 12F present representative traces recorded from CHO cell transfected with the KCNQ2 mutant S122A, S121A, L206C and R201A respectively, before and after external application of 25 μM of NH29 and wherein the membrane potential was stepped from −90 mV holding potential to −40 mV for 1.5 seconds pulse duration.
(§1) Voltage-clamp recordings in CHO cells were performed, using the whole-cell configuration of the patch-clamp technique. Signals were amplified using an Axopatch 200B patch-clamp amplifier (Molecular Devices, Sunnyvale, Calif.), sampled at 2 kHz and filtered at 800 Hz via a 4-pole Bessel low pass filter. […] Series resistances (3-13 MΩ) were compensated (75-90%) and periodically monitored.

The next test has as its target T2, TRPV1 channel (Homo sapiens, UniProt Q8NER1).
T2 construct: expressed in transfected cells; host or cells: CHO cells
Put plainly: TRPV1 currents in transfected CHO cells activated with capsaicin. The settings on record: 0.5 μM capsaicin. The protocol: Chinese hamster ovary (CHO) cells were grown in Dulbecco's modified Eagle's medium (DMEM) supplemented with 2 mM glutamine, 10% fetal calf serum and antibiotics. Briefly, 40,000 cells seeded on poly-D-lysine-coated glass coverslips (13 mm diameter) in a 24-multiwell plate were transfected with pIRES-CD8 (0.5 μg) as a marker for transfection, and with Kv7.2 (0.5 μg) and Kv7.3 (0.5 μg) or TRPV1 […] or TRPV6 […].
For electrophysiology, transfected cells were visualized approximately 40 hours following transfection, using anti-CD8 antibody-coated beads. Transfection was performed using Fugene 6 (Roche, Indianapolis Ind., USA) according to the manufacturer's protocol.
as §1, with “filter. Data were acquired using pClamp 9.2 software (Molecular Devices) and an IBM compatible Pentium IV computer in conjunction with a DigiData 1322A interface (Molecular Devices). The patch pipettes were pulled from borosilicate glass (Warner Instrument Corp, USA) with a resistance of 2-5 MΩ.” for “filter.”, “monitored. […]” for “monitored.”

For another test, the target named is T3, Kv7.2 (Homo sapiens, UniProt O43526).
T3 construct: expressed in transfected cells; host or cells: Xenopus oocytes
Put plainly: Kv channel selectivity, Xenopus oocytes: Kv7.2. Conditions: −40 mV. The procedure:
Voltage-clamp measurements in Xenopus oocytes were performed as previously described.
The selectivity of NH29 on other relevant Kv channels expressed in Xenopus oocytes was also studied, and the results are summarized in Table 3 below. The specificity of NH29 at 25 μM and 50 μM towards various Kv channels was tested in Xenopus oocytes, except for Kv1.2 which was checked in transfected CHO cells. The current amplitude of the various Kv channels was tested at the indicated voltages and the effect of the drugs was expressed as fold of the control amplitude measured under the same conditions in the absence of the drug. The data in Table 3 are expressed as mean±SEM of 5-7 separate experiments.

In test [1] the target is T4, TRPV1 channels in Dorsal Root Ganglions (DRG) (Rattus norvegicus, UniProt O35433).
T4 construct: endogenous in cells; host or cells: primary rat dorsal root ganglion neurons
Nature of the test: TRPV1 currents in DRG neurons activated by capsaicin. The settings on record: 5 μM; 0.5 μM capsaicin; reversible. The protocol: FIG. 14 presents the inhibitory effect of NH29, an exemplary compound according to some embodiments of the present invention, on TRPV1 channels in Dorsal Root Ganglions (DRG).
For dorsal root ganglion (DRG) neuronal cultures, ganglia were dissected from 2-5 day-old Sprague-Dawley rats killed by decapitation. DRGs were placed in Hank's balanced saline solution (HBSS) and prepared by enzymatic dissociation. Briefly, after 30 minutes incubation in 5 mg/ml dispase, 2 mg/ml collagenase type 1A and 0.1 mg/ml DNase (Invitrogen/Gibco, Carlsbad, Calif.) in Ca^2+ and Mg^2+-free HBSS, the ganglia were mechanically triturated with a fire-polished glass Pasteur pipette. The ganglia were then centrifuged for 5 minutes at 80×g and resuspended in DMEM supplemented with 2 mM L-glutamine, 16.5 mM NaHCO3, 6 g/l glucose, 5 ml penicillin/streptomycin and 10% fetal calf serum.
For electrophysiological recording, dissociated neurons were plated on 13 mm glass coverslips, previously coated with poly-D-lysine (1 mg/ml) and laminin (10 μg/ml) and used at 1-2 days in culture.

Another test addresses T5, wild type KCNQ2 (Homo sapiens, UniProt O43526).
T5 construct: expressed in transfected cells; host or cells: CHO cells (printed for the mutants and in the general method)
Put plainly: Wild type KCNQ2 (Kv7.2) currents, patch-clamp. Conditions: NH29.
From the text: FIGS. 10A-D present the potentiating effect of NH29, an exemplary channel opener compound according to embodiments of the present invention, on wild type KCNQ2 (FIGS. 10A and 10B) and R207W mutant (FIGS. 10C and 10D) channels, as expressed in activation curve measurements, showing that NH29 left-shifts the activation curve (ΔV50) by −15.5 mV and −5.5 mV in the case of the wild-type and the mutant, respectively, and showing that NH29 enhances the current of wild-type and the mutant by about 3.4-fold (at −40 mV) and 1.5-fold (at −20 mV), respectively.
as §1, with “filter. Data were acquired using pClamp 9.2 software (Molecular Devices) and an IBM compatible Pentium IV computer in conjunction with a DigiData 1322A interface (Molecular Devices). The patch pipettes were pulled from borosilicate glass (Warner Instrument Corp, USA) with a resistance of 2-5 MΩ.” for “filter.”

T2 sequence (Q8NER1 whole entry): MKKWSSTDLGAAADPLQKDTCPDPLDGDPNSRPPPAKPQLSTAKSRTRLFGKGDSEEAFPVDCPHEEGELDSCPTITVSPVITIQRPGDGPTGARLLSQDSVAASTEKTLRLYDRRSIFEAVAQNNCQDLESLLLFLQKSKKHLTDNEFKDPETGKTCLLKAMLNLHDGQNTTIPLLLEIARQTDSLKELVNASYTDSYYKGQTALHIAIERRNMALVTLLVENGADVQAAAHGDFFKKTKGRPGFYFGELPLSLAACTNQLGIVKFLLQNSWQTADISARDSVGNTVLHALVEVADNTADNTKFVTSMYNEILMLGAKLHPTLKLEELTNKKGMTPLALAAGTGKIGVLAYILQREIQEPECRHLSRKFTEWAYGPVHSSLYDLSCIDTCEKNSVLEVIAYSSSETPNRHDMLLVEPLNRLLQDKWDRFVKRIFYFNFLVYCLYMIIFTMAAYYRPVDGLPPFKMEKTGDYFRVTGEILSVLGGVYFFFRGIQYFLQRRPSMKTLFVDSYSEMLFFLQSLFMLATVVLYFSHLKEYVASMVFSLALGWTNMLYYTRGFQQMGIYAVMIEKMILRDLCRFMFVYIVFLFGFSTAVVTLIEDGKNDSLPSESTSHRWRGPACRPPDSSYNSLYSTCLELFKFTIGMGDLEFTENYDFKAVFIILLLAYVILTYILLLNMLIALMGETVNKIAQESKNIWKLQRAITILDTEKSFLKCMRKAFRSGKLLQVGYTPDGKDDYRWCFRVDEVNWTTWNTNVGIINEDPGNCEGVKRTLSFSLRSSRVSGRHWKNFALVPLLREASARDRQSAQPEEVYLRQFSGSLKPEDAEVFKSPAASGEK
T3 sequence (O43526 whole entry): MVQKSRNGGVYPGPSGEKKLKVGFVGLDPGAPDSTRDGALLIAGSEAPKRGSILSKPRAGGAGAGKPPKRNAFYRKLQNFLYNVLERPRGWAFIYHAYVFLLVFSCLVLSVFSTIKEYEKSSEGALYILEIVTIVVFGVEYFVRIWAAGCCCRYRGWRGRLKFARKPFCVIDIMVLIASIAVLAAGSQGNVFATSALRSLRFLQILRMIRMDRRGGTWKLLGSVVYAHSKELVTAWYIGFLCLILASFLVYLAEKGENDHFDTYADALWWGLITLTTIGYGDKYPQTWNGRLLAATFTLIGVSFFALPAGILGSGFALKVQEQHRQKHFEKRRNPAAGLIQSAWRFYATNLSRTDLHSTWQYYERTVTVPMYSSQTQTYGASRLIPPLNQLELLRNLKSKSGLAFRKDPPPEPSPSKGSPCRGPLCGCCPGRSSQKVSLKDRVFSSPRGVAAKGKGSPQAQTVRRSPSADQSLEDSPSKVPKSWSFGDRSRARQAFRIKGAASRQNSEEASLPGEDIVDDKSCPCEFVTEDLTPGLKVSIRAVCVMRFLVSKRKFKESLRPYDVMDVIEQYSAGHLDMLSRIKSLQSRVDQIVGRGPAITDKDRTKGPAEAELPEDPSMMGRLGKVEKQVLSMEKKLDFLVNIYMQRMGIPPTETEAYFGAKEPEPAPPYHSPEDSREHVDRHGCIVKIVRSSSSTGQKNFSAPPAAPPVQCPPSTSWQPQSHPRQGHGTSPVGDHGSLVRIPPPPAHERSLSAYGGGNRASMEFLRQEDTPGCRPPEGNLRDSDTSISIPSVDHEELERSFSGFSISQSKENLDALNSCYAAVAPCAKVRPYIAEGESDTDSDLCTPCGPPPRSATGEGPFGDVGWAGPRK
T1 sequence (O43526 whole entry R198A): as the sequence (O43526 whole entry) above, with R198A counted along it
T4 sequence (O35433 whole entry): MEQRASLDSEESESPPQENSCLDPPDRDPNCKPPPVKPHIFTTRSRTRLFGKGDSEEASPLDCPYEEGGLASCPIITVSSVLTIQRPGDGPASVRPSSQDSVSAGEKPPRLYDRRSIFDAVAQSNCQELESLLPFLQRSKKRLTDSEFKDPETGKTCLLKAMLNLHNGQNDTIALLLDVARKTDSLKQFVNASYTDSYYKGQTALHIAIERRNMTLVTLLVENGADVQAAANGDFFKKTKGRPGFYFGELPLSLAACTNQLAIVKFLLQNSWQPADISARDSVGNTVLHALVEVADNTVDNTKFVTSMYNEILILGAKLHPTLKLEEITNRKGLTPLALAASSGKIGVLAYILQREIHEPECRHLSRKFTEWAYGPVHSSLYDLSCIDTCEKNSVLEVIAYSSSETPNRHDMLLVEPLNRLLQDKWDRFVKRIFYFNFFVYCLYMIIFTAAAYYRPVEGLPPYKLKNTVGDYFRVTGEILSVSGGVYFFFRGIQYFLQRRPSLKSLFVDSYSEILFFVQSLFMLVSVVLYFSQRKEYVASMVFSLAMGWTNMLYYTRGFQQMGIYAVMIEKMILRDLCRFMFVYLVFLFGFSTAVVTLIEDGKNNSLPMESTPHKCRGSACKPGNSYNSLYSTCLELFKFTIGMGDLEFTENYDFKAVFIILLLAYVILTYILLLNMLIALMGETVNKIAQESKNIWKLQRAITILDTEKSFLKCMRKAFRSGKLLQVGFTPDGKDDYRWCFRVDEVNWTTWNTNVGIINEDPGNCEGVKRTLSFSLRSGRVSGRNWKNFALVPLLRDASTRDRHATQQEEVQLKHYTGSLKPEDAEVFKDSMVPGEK
T5 sequence (O43526 whole entry): as the sequence (O43526 whole entry) above

Take `O=C(Cc1cc([N+](=O)[O-])cc([N+](=O)[O-])c1Nc1c(Cl)cc([N+](=O)[O-])cc1Cl)NCCO` [NH29]: the “fold enhancement of current” value on KCNQ2 mutant R198A turned out to be 1.6 fold. Also, the “inhibition of TRPV1 channels” value at TRPV1 channel (NH29 at 5-50 M as printed) was “potently inhibited TRPV1 channels”. In addition, the “inhibition of TRPV1 current” value against TRPV1 channel (50 μM, reversible) is given as “almost completely”; in test [1] it was “almost completely”. The Fold current amplitude was 3.5 ± 0.4 fold at Kv7.2 (25 μM) and 6.8 ± 0.7 fold on Kv7.2 (50 μM). For the same compound, on wild type KCNQ2, the “left-shift of the activation curve (ΔV50)” value is −15.5 mV.
